Test results from patent US9914707B2, “Naphthylamide compound, preparation method and use thereof” (SHANGHAI INSTITUTE OF MATERIA MEDICA, CHINESE ACADEMY OF …, priority 2014, dated 2018).

Tested on: VEGF-induced human umbilical vein endothelial cells (HUVEC) proliferation
Test: VEGF-induced human umbilical vein endothelial cells (HUVEC) proliferation (SRB)
Format: cell-based
Conditions: for cell activity compared with positive control compound ABT869: VEGF-induced HUVEC proliferation
Procedure: 5000-8000 primary HUVEC cells before 5-15 doublings were seeded to each well of 96-well plate and each well contained 90 μl. The cells were cultured overnight and then starved with 90 μl/well serum-free basal culture medium for 24 h. Then 10 μl different concentration of compound was added to each well. Five concentrations were set and each concentration had 3 wells. After 2 h, 100 ng/mL of VEGF growth-stimulating factor was added. After 48 h, the medium was discarded, the cells were fixed with pre-cooled 10% TCA at 4° C. for 1 h, then washed with distilled water five times and dried in air. Then 100 μl of 4 mg/ml of sulforodamine B (SRB) solution prepared from 1% acetic acid was added to each well to dye 15 minutes at room temperature. The staining solution was discarded and each well was washed with 1% acetic acid five times and then dried in air. Finally, each well was added with 150 μl Tris-HCl solution (10 mM Tris, pH 10.0) and absorbance OD values at 560 nm were measured by microplate reader. Inhibition rate of the compound on HUVEC cell proliferation was measured to reflect VEGF-mediated proliferation inhibition effect of compound.
Inhibition rate of the compound was obtained by the following formula: […]
IC50 values were calculated by inhibition curves with four parameters fitting.

SMILES | cell activity compared with positive control compound ABT869 | IC50 (Homo sapiens, primary HUVEC, 100 ng/mL VEGF, 48 h, SRB, read-out: Half inhibitory concentration for VEGF-induced HUVEC proliferation, IC50) [nM]
CCc1cccc(NC(=O)c2cccc3cc(-c4cccc5[nH]nc(N)c45)ccc23)c1 [Compound I-9, 6-(3-amino-1H-indazol-4-yl)-N-(3-ethylphenyl)-1-naphthalenecarboxamide] | stronger than that of positive control compound ABT869 | –
Cc1cc(NC(=O)c2cccc3cc(-c4cccc5[nH]nc(N)c45)ccc23)ccc1F [Compound I-21, 6-(3-amino-1H-indazol-4-yl)-N-(4-fluoro-3-methylphenyl)-1-naphthalenecarboxamide] | stronger than that of positive control compound ABT869 | –
Cc1ccc(F)c(NC(=O)Nc2ccc(-c3cccc4[nH]nc(N)c34)cc2)c1 [ABT869, reference compound] | – | 2.32
Cc1ccc(NC(=O)c2cccc3cc(-c4cccc5[nH]nc(N)c45)ccc23)cc1 [Compound I-8, 6-(3-amino-1H-indazol-4-yl)-N-(p-methylphenyl)-1-naphthalenecarboxamide] | stronger than that of positive control compound ABT869 | –
Nc1n[nH]c2cccc(-c3ccc4c(C(=O)Nc5cc(F)cc(F)c5)cccc4c3)c12 [Compound I-14, 6-(3-amino-1H-indazol-4-yl)-N-(3,5-difluorophenyl)-1-naphthalenecarboxamide] | stronger than that of positive control compound ABT869 | –
